Patent US8859781B2, “No-releasing nonoate(nitrogen-bound)sulfonamide-linked-coxib anti-cancer agents” (Euclises Pharmaceuticals, Inc., priority 2012, dated 2014)

Test system: PGE2 levels in exudate (carrageenan-challenged air pouch)
Experiment: Air pouch assay of acute inflammation measuring exudate volume and PGE2 levels in exudate in rats
Type: in vivo, Sprague-Dawley rats
Conditions: rat air pouch; for PGE2 (pg/mL), mean in exudate / Volume (mL), mean collected exudate volume: 0.01 mmol/kg oral 2 h before 1% carrageenan, exudate 4 h after carrageenan, group mean, 5 rats/group; for PGE2 (pg/mL), mean in exudate: ELISA; for reduction in collected exudate volume / reduction in exudate PGE2 release / effect on the carrageenan-induced increase in PGE2 release / effect on the carrageenan-induced increase in exudate volume: 0.01 mmol/kg oral pretreatment; for reduction in collected exudate volume / reduction in exudate PGE2 release: vs vehicle; for effect on the carrageenan-induced increase in PGE2 release / effect on the carrageenan-induced increase in exudate volume: result in words
Procedure: Compound Testing in the Air Pouch Assay of Acute Inflammation Measuring PGE2 Levels in Exudate in Rats
Animals: Sprague-Dawley rats (Charles River Laboratories., R #3234, PO #738990, male, 160-180 g) were received, individually examined, and housed in cages of five rats each. The rats were ear notched for identification purposes.
Compounds and Dosing Solutions: The vehicle was prepared by dissolving 40 g (2-hydroxypropyl)-β-cyclodextrin (HP-β-CD, Sigma, Cat. 332593, lot MKBJ5858V) in 160 mL sterile saline for injection, USP (Hospira, lot 26-801-FW) making a 25% solution which was filter sterilized (0.2 μm, Nalgene, Cat. 151-4020, lot 1095610). A 1% carrageenan solution was prepared by dissolving […] (Fluka, Cat. 22049, lot 1318338) in hot 60 mL sterile saline for injection, USP. This solution was stored at 4-8° C. Test compounds were dissolved in DMSO (Fisher Scientific, Cat. D128-500, lot 874999) to make 75 mM stocks. 0.25 mL of compound DMSO stocks were mixed with 12.5 mL of HP-13-CD solution at 50° C. (maximum DMSO concentration was 2% of the final volume of vehicle,). Final concentration of all test compounds was 1.5 mM and compounds were dosed within 2 hours of preparation at 0.01 mmol/kg (12 […] of test compound per rat).
Day 0—Air Pouch Initiation: The rats were anesthetized in a biological cabinet, the nape of the neck was cleansed with 70% isopropanol (Butler Schein Animal Health, Cat. 002498, lot 29EMS07104547) followed by 1% povidone-iodine solution (Ricca Chemical Co., Cat. 3955-16, lot 2205469). Twenty mL of sterile (0.22 μm, Millipore, Cat. SLGP033RS, lot R2KA55925, exp August 2015) air was injected subcutaneously (SC) using a 23G×1½ inch needle fixed to a 20 mL syringe. The rats were returned to routine housing. No adverse reactions were observed.
Day 3—Air Pouch Maintenance: The rats were anesthetized in a biological cabinet, the nape of the neck was cleansed with 70% isopropanol followed by 1% povidone-iodine solution. Ten mL of sterile air was injected SC using a 23G×1½ inch needle fixed to a 20 mL syringe. The rats were returned to routine housing in clean cages. No adverse reactions were observed.
Day 6—Compound Administration and Carrageenan Insult: At commencement of the study, each rat was weighed and sorted into treatment groups of 5 rats/group based upon average weight. Each rat was dosed orally via gavage at 6.809 mL/kg (1.6 mL/235 g) with their respective test material/vehicle. Two hours after test material/vehicle administration, the rats were injected with 1.0 mL of the room temperature 1% carrageenan saline solution into the air pouch. Four hours after carrageenan injection, the rats were anesthetized and 5 mL of the exudate buffer was injected into the air pouch. The pouch was gently massaged, the exudate immediately removed, and exudate volume recorded. The exudate was collected in a serum separator tube on an ice bath. The exudates were centrifuged (refrigerated) and an aliquot of the supernatant was stored in a labeled Eppendorf tube at −80° C.
Termination of Study: Animals were euthanized via CO2 asphyxiation at the completion of the in-life portion of this study and carcasses were disposed of according to standard protocols.
Data Analysis: The exudate samples were thawed to room temperature and assayed by ELISA for PGE2 (R&D Systems, Cat. KGE004B, lot 307711). Statistical significance of treatments on mean exudate volumes are determined by comparison of means for treatment groups with vehicle group. Mean cytokine concentrations and standard deviations are determined for each group. Statistical significance of treatments on cytokine concentrations are determined for each compound group compared to vehicle group. Statistical significance (p-value) was calculated vs control groups by Student's t-Test.

Row | Compound | PGE2 (pg/mL), mean in exudate | Volume (mL), mean collected exudate volume | reduction in collected exudate volume | reduction in exudate PGE2 release | effect on the carrageenan-induced increase in PGE2 release | effect on the carrageenan-induced increase in exudate volume
1 | Cc1ccc(-c2cc(C(F)(F)F)nn2-c2ccc(S(N)(=O)=O)cc2)cc1 [Celecoxib, 4-(5-(p-Tolyl)-3-(trifluoromethyl)-1H-pyrazol-1-yl)benzenesulfonamide, reference compound] | 907.1 pg/mL | 4.6 mL | 19% | 80% |  | 
2 | Cc1ccc(-c2cc(C(F)(F)F)nn2-c2ccc(S(=O)(=O)NC(=O)OCCN(C)/[N+]([O-])=N/OCOC(=O)C(C)(C)C)cc2)cc1 [Compound 202, (Z)-5,12,12-Trimethyl-1,11-dioxo-1-(4-(5-(p-tolyl)-3-(trifluoromethyl)-1H-pyrazol-1-yl)phenylsulfonamido)-2,8,10-trioxa-5,6,7-triazatridec-6-ene 6-oxide] | 4959.1 pg/mL | 5.6 mL |  |  | did not show any effect | did not show any effect
3 | Cc1ccc(-c2cc(C(F)(F)F)nn2-c2ccc(S(=O)(=O)NC(=O)CN(C)/[N+]([O-])=N/OCOC(=O)C(C)(C)C)cc2)cc1 [Compound 602, (Z)-3-Methyl-3-(2-oxo-2-(4-(5-(p-tolyl)-3-(trifluoromethyl)-1H-pyrazol-1-yl)phenylsulfonamido)ethyl)-1-((pivaloyloxy)methoxy)triaz-1-ene 2-oxide] | 1915.2 pg/mL | 4.5 mL | 20% | 56% |  | 
4 | CN(CCO)/[N+]([O-])=N/OCOC(=O)C(C)(C)C [Compound N402, (Z)-3-(2-Hydroxyethyl)-3-methyl-1-((pivaloyloxy)methoxy)triaz-1-ene 2-oxide] | 3782.4 pg/mL | 5.4 mL |  |  | did not show any effect | did not show any effect
